Source: ChEMBL document CHEMBL5036311, “X-ray Crystal Structure-Guided Design and Optimization of 7H-Pyrrolo[2,3-d]pyrimidine-5-carbonitrile Scaffold as a Potent and Orally Active Monopolar Spindle 1 Inhibitor” (J Med Chem, 2021)
The source made the active and inactive calls. The rule behind the calls is not given here.

Tests used:
[1] = target: T1, Dual specificity protein kinase TTK (Homo sapiens, UniProt P33981); assay: Inhibition of human hexa-His tagged MPS1 (515 to 795 residue) expressed in Escherichia coli BL2I-DE3 cells incubated for 4 hrs in presence of ATP by ADP-glo luminescence assay
T1 sequence (P33981 whole entry): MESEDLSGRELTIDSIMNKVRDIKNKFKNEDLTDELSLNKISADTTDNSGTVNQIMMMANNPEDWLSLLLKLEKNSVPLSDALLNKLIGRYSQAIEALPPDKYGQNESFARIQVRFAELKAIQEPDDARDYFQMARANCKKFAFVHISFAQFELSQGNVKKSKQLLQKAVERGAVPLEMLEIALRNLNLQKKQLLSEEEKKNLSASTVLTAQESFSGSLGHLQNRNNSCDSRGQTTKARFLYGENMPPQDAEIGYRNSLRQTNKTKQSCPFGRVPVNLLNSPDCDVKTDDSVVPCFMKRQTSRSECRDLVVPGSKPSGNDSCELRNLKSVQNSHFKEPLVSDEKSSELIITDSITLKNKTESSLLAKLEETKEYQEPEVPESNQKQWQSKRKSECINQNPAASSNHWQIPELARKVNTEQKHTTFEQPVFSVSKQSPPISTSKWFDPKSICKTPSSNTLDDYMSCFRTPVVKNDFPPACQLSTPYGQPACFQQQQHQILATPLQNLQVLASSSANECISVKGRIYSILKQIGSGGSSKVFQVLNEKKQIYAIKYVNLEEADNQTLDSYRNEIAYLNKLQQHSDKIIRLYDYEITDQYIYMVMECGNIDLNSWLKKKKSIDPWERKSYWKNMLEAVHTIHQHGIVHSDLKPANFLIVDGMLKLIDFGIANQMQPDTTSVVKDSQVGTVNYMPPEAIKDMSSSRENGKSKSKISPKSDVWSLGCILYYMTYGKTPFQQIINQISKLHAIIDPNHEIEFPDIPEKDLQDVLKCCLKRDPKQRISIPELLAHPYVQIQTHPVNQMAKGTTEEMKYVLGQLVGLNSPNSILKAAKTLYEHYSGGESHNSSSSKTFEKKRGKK

[2] = Metabolic stability in human liver microsomes assessed as compound remaining after 30 mins; assay type: ADME, Microsome; conditions: read-out: Stability
[3] = Oral bioavailability in ICR mouse at 10 mg/kg; assay type: ADME, organism-based; conditions: in vivo
[4] = AUC in ICR mouse at 10 mg/kg, po; assay type: ADME, organism-based; parameters: dose 10 mg/kg; conditions: in vivo
[5] = target: T2, Dual specificity protein kinase TTK (Homo sapiens) (UniProt P33981); assay: Binding affinity to human hexa-His tagged MPS1 (515 to 795 residue) expressed in Escherichia coli BL2I-DE3 cells assessed as change in melting temperature by thermal shift assay
T2 sequence (whole entry): T1 sequence (P33981 whole entry)

[6] = Half life in ICR mouse at 10 mg/kg, po; assay type: ADME, organism-based; conditions: in vivo
[7] = Cmax in ICR mouse at 10 mg/kg, po; assay type: ADME, organism-based; parameters: route oral, dose 10 mg/kg; conditions: in vivo
MDA-MB-231 [8] = assay: Growth inhibition of human MDA-MB-231 cells measured after 5 days by CellTiter-Glo assay; assay type: functional; conditions: time 5 day; for GI50: Homo sapiens, MDA-MB-231, 120 h
[9] = target: T2, Dual specificity protein kinase TTK (Homo sapiens); assay: Inhibition of human […] assessed as reduction in histone H3 phosphorylation at 0.1 to 10 uM by Western blot analysis; conditions: dose 0.1-10 µM
[10] = target: T2, Dual specificity protein kinase TTK (Homo sapiens); assay: Inhibition of human […] assessed as reduction in MPS1 autophosphorylation at 0.1 to 10 uM by Western blot analysis; conditions: dose 0.1-10 µM
[11] = Toxicity in athymic mouse xenografted with human MDA-MB-231 cells assessed as body weight gain at 2 mg/kg administered daily and measured twice a week (reference value: 15.5 %); assay type: organism-based; conditions: in vivo
[12] = Toxicity in athymic mouse xenografted with human MDA-MB-231 cells assessed as change in intestine morphology at 2 mg/kg administered daily and measured twice a week; assay type: organism-based; conditions: in vivo
[13] = Toxicity in athymic mouse xenografted with human MDA-MB-231 cells assessed as effect on body weight at 2 mg/kg administered daily and measured twice a week; assay type: organism-based; conditions: in vivo
MDA-MB-231 [14] = assay: Antitumor activity against human MDA-MB-231 cells xenografted in athymic mouse model assessed as tumor growth inhibition at 2 mg/kg administered daily and measured twice a week; assay type: functional; conditions: read-out: TGI

Row | SMILES | ΔTm [5] [°C] | GI50 (MDA-MB-231 [8]) [nM] | GI90 (MDA-MB-231 [8]) [nM] | further results
1 | COc1cc(C(=O)N2CCOCC2)ccc1Nc1nc(NC2CCCCC2)c2c(C#N)c[nH]c2n1 | 16.1 | 3 | 43 | IC50 [1]: 3.2 nM; remaining at 0.5 h [2]: 56%; bioavailability [3]: 98%; AUC [4]: 3770 ng·h/mL; half-life [6]: 2.6 h; Cmax [7]: 995 ng/mL
2 | CNc1nc(Nc2ccc(N3CCCC3=O)cc2OC)nc2[nH]cc(C#N)c12 | 7.3 | 637 | >1000 | –
3 | CCOc1cc(N2CCCC2=O)ccc1Nc1nc(NC2CCCCC2)c2c(C#N)c[nH]c2n1 | 16.9 | 108 | 478 | –
4 | Cc1cc(N2CCOCC2)ccc1Nc1nc(NC2CCCCC2)c2c(C(F)(F)F)c[nH]c2n1 | 17.2 | > 1000 | >1000 | –
5 | COc1cc(N2CCCC2=O)ccc1Nc1nc(NCC(C)C)c2c(C#N)c[nH]c2n1 | 13.8 | 20 | 122 | –
6 | COc1cc(N2CCCC2=O)ccc1Nc1nc(NC2CCCCC2)c2c(C(F)(F)F)c[nH]c2n1 | 15.1 | 327 | >1000 | –
7 | COc1cc(N2CCCC2=O)ccc1Nc1nc(NC2CCCCC2)c2c(C#N)c[nH]c2n1 | 18.3 | 11 | 37 | inhibition [9]: Active; inhibition [10]: Active; IC50 [1]: 6.4 nM; Activity [11]: 7.6%; Activity [12]: Non-Toxic; remaining at 0.5 h [2]: 60%; bioavailability [3]: 61%; Activity [13]: Non-Toxic; AUC [4]: 6150 ng·h/mL; inhibition in vivo at 2 mg/kg (MDA-MB-231 [14]): 57%; half-life [6]: 1.1 h; Cmax [7]: 2220 ng/mL
8 | N#Cc1c[nH]c2nc(Nc3ccc(N4CCCC4=O)cn3)nc(NC3CCCCC3)c12 | 13.8 | 364 | 668 | –
9 | COc1cc(N2CCCC2=O)ccc1Nc1nc(NC2CCOCC2)c2c(C#N)c[nH]c2n1 | 14.8 | > 1000 | >1000 | –
10 | COc1cc(N2CCCC2=O)ccc1Nc1nc(NCC2CCC2)c2c(C#N)c[nH]c2n1 | 15.2 | > 1000 | >1000 | –
11 | CCCCNc1nc(Nc2ccc(N3CCCC3=O)cc2OC)nc2[nH]cc(C#N)c12 | 11.2 | 18 | 267 | –
12 | N#Cc1c[nH]c2nc(Nc3ccc(N4CCCC4=O)cc3)nc(NC3CCCCC3)c12 | 17.2 | 46 | 67 | –
